Assay results published in US20230017045A1, “PYRIDINE AND PYRIMIDINE CARBOXYLATE HERBICIDES AND METHODS OF USE THEREOF” (Dow AgroSciences LLC, priority 2017, published 2023).

System: test plant species
Experiment: Post-emergent herbicidal activity test (greenhouse, foliar spray, visual growth reduction)
Assay type: in vivo
Settings: post-emergence, 336 h, ALOMY: blackgrass (Alopecurus myosuroides), 140 g ai/ha, 14 days after application, read-out: Visual Growth Reduction (%) 14 Days After Application, ALOMY
Outline: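 Visual scoring 14 d after treatment (0 = no injury, 100 = complete control) against nontreated and solvent-blank plants gave percent growth reduction. Foliar application used a track sprayer delivering 187 L/ha to seedlings at first or second true leaf stage, grown at 23–29 °C day, ~15 h photoperiod.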

SMILES	pest or weed control at 140 g/ha
COC(=O)c1nc(-c2cc(C)c(Cl)cc2Cl)ccc1Cl [F51, Methyl 3-chloro-6-(2,4-dichloro-5-methylphenyl) picolinate]	0 to 29%

Same assay, conditions: post-emergence, 336 h, AMARE: redroot pigweed (Amaranthus retroflexus), 140 g ai/ha, 14 days after application, read-out: Visual Growth Reduction (%) 14 Days After Application, AMARE

SMILES	pest or weed control at 140 g/ha
COC(=O)c1nc(-c2cc(C)c(Cl)cc2Cl)ccc1Cl [F51, Methyl 3-chloro-6-(2,4-dichloro-5-methylphenyl) picolinate]	45 to 59%

Same assay, conditions: post-emergence, 336 h, AVEFA: wild oat (Avena fatua), 140 g ai/ha, 14 days after application, read-out: Visual Growth Reduction (%) 14 Days After Application, AVEFA

SMILES	pest or weed control at 140 g/ha
COC(=O)c1nc(-c2cc(C)c(Cl)cc2Cl)ccc1Cl [F51, Methyl 3-chloro-6-(2,4-dichloro-5-methylphenyl) picolinate]	0 to 29%

Same assay, conditions: post-emergence, 336 h, CHEAL: lambsquarters (Chenopodium album), 140 g ai/ha, 14 days after application, read-out: Visual Growth Reduction (%) 14 Days After Application, CHEAL

SMILES	pest or weed control at 140 g/ha
COC(=O)c1nc(-c2cc(C)c(Cl)cc2Cl)ccc1Cl [F51, Methyl 3-chloro-6-(2,4-dichloro-5-methylphenyl) picolinate]	45 to 59%

Same assay, conditions: post-emergence, 336 h, CIRAR: canada thistle (Cirsium arvense), 140 g ai/ha, 14 days after application, read-out: Visual Growth Reduction (%) 14 Days After Application, CIRAR

SMILES	pest or weed control at 140 g/ha
COC(=O)c1nc(-c2cc(C)c(Cl)cc2Cl)ccc1Cl [F51, Methyl 3-chloro-6-(2,4-dichloro-5-methylphenyl) picolinate]	0 to 29%

Same assay, conditions: post-emergence, 336 h, CYPES: yellow nutsedge (Cyperus esculentus), 140 g ai/ha, 14 days after application, read-out: Visual Growth Reduction (%) 14 Days After Application, CYPES

SMILES	pest or weed control at 140 g/ha
COC(=O)c1nc(-c2cc(C)c(Cl)cc2Cl)ccc1Cl [F51, Methyl 3-chloro-6-(2,4-dichloro-5-methylphenyl) picolinate]	0 to 29%

Same assay, conditions: post-emergence, 336 h, DIGSA: crabgrass (Digitaria sanguinalis), 140 g ai/ha, 14 days after application, read-out: Visual Growth Reduction (%) 14 Days After Application, DIGSA

SMILES	pest or weed control at 140 g/ha
COC(=O)c1nc(-c2cc(C)c(Cl)cc2Cl)ccc1Cl [F51, Methyl 3-chloro-6-(2,4-dichloro-5-methylphenyl) picolinate]	0 to 29%

Same assay, conditions: post-emergence, 336 h, ECHCG: barnyardgrass (Echinochloa crus-galli), 140 g ai/ha, 14 days after application, read-out: Visual Growth Reduction (%) 14 Days After Application, ECHCG

SMILES	pest or weed control at 140 g/ha
COC(=O)c1nc(-c2cc(C)c(Cl)cc2Cl)ccc1Cl [F51, Methyl 3-chloro-6-(2,4-dichloro-5-methylphenyl) picolinate]	0 to 29%
COC(=O)c1nc(-c2ccc(F)c(OC)c2)ccc1Cl [F292, Methyl 3-chloro-6-(4-fluoro-3-methoxyphenyl) picolinate]	0 to 29%
COC(=O)c1nc(-c2cc3ncsc3cc2F)c(F)cc1Cl [F265, Methyl 3-chloro-5-fluoro-6-(6-fluorobenzo[d]thiazol-5-yl)picolinate]	0 to 29%

Same assay, conditions: post-emergence, 336 h, IPOHE: ivy-leaf morning glory (Ipomoea hederacea), 140 g ai/ha, 14 days after application, read-out: Visual Growth Reduction (%) 14 Days After Application, IPOHE

SMILES	pest or weed control at 140 g/ha
COC(=O)c1nc(-c2ccc(F)c(OC)c2)ccc1Cl [F292, Methyl 3-chloro-6-(4-fluoro-3-methoxyphenyl) picolinate]	30 to 44%
COC(=O)c1nc(-c2cc3ncsc3cc2F)c(F)cc1Cl [F265, Methyl 3-chloro-5-fluoro-6-(6-fluorobenzo[d]thiazol-5-yl)picolinate]	0 to 29%

Same assay, conditions: post-emergence, 336 h, KCHSC: kochia (Bassia scoparia), 140 g ai/ha, 14 days after application, read-out: Visual Growth Reduction (%) 14 Days After Application, KCHSC

SMILES	pest or weed control at 140 g/ha
COC(=O)c1nc(-c2cc(C)c(Cl)cc2Cl)ccc1Cl [F51, Methyl 3-chloro-6-(2,4-dichloro-5-methylphenyl) picolinate]	0 to 29%
COC(=O)c1nc(-c2ccc(F)c(OC)c2)ccc1Cl [F292, Methyl 3-chloro-6-(4-fluoro-3-methoxyphenyl) picolinate]	45 to 59%
COC(=O)c1nc(-c2cc3ncsc3cc2F)c(F)cc1Cl [F265, Methyl 3-chloro-5-fluoro-6-(6-fluorobenzo[d]thiazol-5-yl)picolinate]	0 to 29%

Same assay, conditions: post-emergence, 336 h, ORYSA: rice (Oryza sativa), 140 g ai/ha, 14 days after application, read-out: Visual Growth Reduction (%) 14 Days After Application, ORYSA

SMILES	pest or weed control at 140 g/ha
COC(=O)c1nc(-c2cc(C)c(Cl)cc2Cl)ccc1Cl [F51, Methyl 3-chloro-6-(2,4-dichloro-5-methylphenyl) picolinate]	0 to 29%
COC(=O)c1nc(-c2ccc(F)c(OC)c2)ccc1Cl [F292, Methyl 3-chloro-6-(4-fluoro-3-methoxyphenyl) picolinate]	0 to 29%
COC(=O)c1nc(-c2cc3ncsc3cc2F)c(F)cc1Cl [F265, Methyl 3-chloro-5-fluoro-6-(6-fluorobenzo[d]thiazol-5-yl)picolinate]	0 to 29%

Same assay, conditions: post-emergence, 336 h, SETFA: giant foxtail (Setaria faberi), 140 g ai/ha, 14 days after application, read-out: Visual Growth Reduction (%) 14 Days After Application, SETFA

SMILES	pest or weed control at 140 g/ha
COC(=O)c1nc(-c2cc(C)c(Cl)cc2Cl)ccc1Cl [F51, Methyl 3-chloro-6-(2,4-dichloro-5-methylphenyl) picolinate]	0 to 29%
COC(=O)c1nc(-c2ccc(F)c(OC)c2)ccc1Cl [F292, Methyl 3-chloro-6-(4-fluoro-3-methoxyphenyl) picolinate]	0 to 29%
COC(=O)c1nc(-c2cc3ncsc3cc2F)c(F)cc1Cl [F265, Methyl 3-chloro-5-fluoro-6-(6-fluorobenzo[d]thiazol-5-yl)picolinate]	0 to 29%

Same assay, conditions: post-emergence, 336 h, SORVU: grain sorghum (Sorghum vulgare), 140 g ai/ha, 14 days after application, read-out: Visual Growth Reduction (%) 14 Days After Application, SORVU

SMILES	pest or weed control at 140 g/ha
COC(=O)c1nc(-c2cc(C)c(Cl)cc2Cl)ccc1Cl [F51, Methyl 3-chloro-6-(2,4-dichloro-5-methylphenyl) picolinate]	0 to 29%
COC(=O)c1nc(-c2ccc(F)c(OC)c2)ccc1Cl [F292, Methyl 3-chloro-6-(4-fluoro-3-methoxyphenyl) picolinate]	0 to 29%
COC(=O)c1nc(-c2cc3ncsc3cc2F)c(F)cc1Cl [F265, Methyl 3-chloro-5-fluoro-6-(6-fluorobenzo[d]thiazol-5-yl)picolinate]	0 to 29%

Same assay, conditions: post-emergence, 336 h, STEME: common chickweed (Stellaria media), 140 g ai/ha, 14 days after application, read-out: Visual Growth Reduction (%) 14 Days After Application, STEME

SMILES	pest or weed control at 140 g/ha
COC(=O)c1nc(-c2cc(C)c(Cl)cc2Cl)ccc1Cl [F51, Methyl 3-chloro-6-(2,4-dichloro-5-methylphenyl) picolinate]	0 to 29%
COC(=O)c1nc(-c2ccc(F)c(OC)c2)ccc1Cl [F292, Methyl 3-chloro-6-(4-fluoro-3-methoxyphenyl) picolinate]	0 to 29%
COC(=O)c1nc(-c2cc3ncsc3cc2F)c(F)cc1Cl [F265, Methyl 3-chloro-5-fluoro-6-(6-fluorobenzo[d]thiazol-5-yl)picolinate]	0 to 29%

Same assay, conditions: post-emergence, 336 h, TRZAS: wheat, spring (Triticum aestivum), 140 g ai/ha, 14 days after application, read-out: Visual Growth Reduction (%) 14 Days After Application, TRZAS

SMILES	pest or weed control at 140 g/ha
COC(=O)c1nc(-c2cc(C)c(Cl)cc2Cl)ccc1Cl [F51, Methyl 3-chloro-6-(2,4-dichloro-5-methylphenyl) picolinate]	0 to 29%
COC(=O)c1nc(-c2ccc(F)c(OC)c2)ccc1Cl [F292, Methyl 3-chloro-6-(4-fluoro-3-methoxyphenyl) picolinate]	0 to 29%
COC(=O)c1nc(-c2cc3ncsc3cc2F)c(F)cc1Cl [F265, Methyl 3-chloro-5-fluoro-6-(6-fluorobenzo[d]thiazol-5-yl)picolinate]	0 to 29%

Same assay, conditions: post-emergence, 336 h, blackgrass (Alopecurus myosuroides), 14 Days After Application, 140 g ai/ha, read-out: Visual Growth Reduction (%) ALOMY

SMILES	pest or weed control at 140 g/ha
COC(=O)c1nc(-c2ccc(F)c(OC)c2)ccc1Cl [F292, Methyl 3-chloro-6-(4-fluoro-3-methoxyphenyl) picolinate]	0 to 29%
COC(=O)c1nc(-c2cc3ncsc3cc2F)c(F)cc1Cl [F265, Methyl 3-chloro-5-fluoro-6-(6-fluorobenzo[d]thiazol-5-yl)picolinate]	0 to 29%

Same assay, conditions: post-emergence, 336 h, canada thistle (Cirsium arvense), 14 Days After Application, 140 g ai/ha, read-out: Visual Growth Reduction (%) CIRAR

SMILES	pest or weed control at 140 g/ha
COC(=O)c1nc(-c2ccc(F)c(OC)c2)ccc1Cl [F292, Methyl 3-chloro-6-(4-fluoro-3-methoxyphenyl) picolinate]	60 to 74%
COC(=O)c1nc(-c2cc3ncsc3cc2F)c(F)cc1Cl [F265, Methyl 3-chloro-5-fluoro-6-(6-fluorobenzo[d]thiazol-5-yl)picolinate]	0 to 29%

Same assay, conditions: post-emergence, 336 h, crabgrass (Digitaria sanguinalis), 14 Days After Application, 140 g ai/ha, read-out: Visual Growth Reduction (%) DIGSA

SMILES	pest or weed control at 140 g/ha
COC(=O)c1nc(-c2ccc(F)c(OC)c2)ccc1Cl [F292, Methyl 3-chloro-6-(4-fluoro-3-methoxyphenyl) picolinate]	0 to 29%
COC(=O)c1nc(-c2cc3ncsc3cc2F)c(F)cc1Cl [F265, Methyl 3-chloro-5-fluoro-6-(6-fluorobenzo[d]thiazol-5-yl)picolinate]	0 to 29%

Same assay, conditions: post-emergence, 336 h, lambsquarters (Chenopodium album), 14 Days After Application, 140 g ai/ha, read-out: Visual Growth Reduction (%) CHEAL

SMILES	pest or weed control at 140 g/ha
COC(=O)c1nc(-c2ccc(F)c(OC)c2)ccc1Cl [F292, Methyl 3-chloro-6-(4-fluoro-3-methoxyphenyl) picolinate]	85 to 94%
COC(=O)c1nc(-c2cc3ncsc3cc2F)c(F)cc1Cl [F265, Methyl 3-chloro-5-fluoro-6-(6-fluorobenzo[d]thiazol-5-yl)picolinate]	75 to 84%

Same assay, conditions: post-emergence, 336 h, redroot pigweed (Amaranthus retroflexus), 14 Days After Application, 140 g ai/ha, read-out: Visual Growth Reduction (%) AMARE

SMILES	pest or weed control at 140 g/ha
COC(=O)c1nc(-c2ccc(F)c(OC)c2)ccc1Cl [F292, Methyl 3-chloro-6-(4-fluoro-3-methoxyphenyl) picolinate]	0 to 29%
COC(=O)c1nc(-c2cc3ncsc3cc2F)c(F)cc1Cl [F265, Methyl 3-chloro-5-fluoro-6-(6-fluorobenzo[d]thiazol-5-yl)picolinate]	0 to 29%

Same assay, conditions: post-emergence, 336 h, wild oat (Avena fatua), 14 Days After Application, 140 g ai/ha, read-out: Visual Growth Reduction (%) AVEFA

SMILES	pest or weed control at 140 g/ha
COC(=O)c1nc(-c2ccc(F)c(OC)c2)ccc1Cl [F292, Methyl 3-chloro-6-(4-fluoro-3-methoxyphenyl) picolinate]	0 to 29%
COC(=O)c1nc(-c2cc3ncsc3cc2F)c(F)cc1Cl [F265, Methyl 3-chloro-5-fluoro-6-(6-fluorobenzo[d]thiazol-5-yl)picolinate]	0 to 29%

Same assay, conditions: post-emergence, 336 h, yellow nutsedge (Cyperus esculentus), 14 Days After Application, 140 g ai/ha, read-out: Visual Growth Reduction (%) CYPES

SMILES	pest or weed control at 140 g/ha
COC(=O)c1nc(-c2ccc(F)c(OC)c2)ccc1Cl [F292, Methyl 3-chloro-6-(4-fluoro-3-methoxyphenyl) picolinate]	60 to 74%
COC(=O)c1nc(-c2cc3ncsc3cc2F)c(F)cc1Cl [F265, Methyl 3-chloro-5-fluoro-6-(6-fluorobenzo[d]thiazol-5-yl)picolinate]	0 to 29%
